The source of these data is PubChem BioAssay (NCI).

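Five concentrations, 48 hours, 96-well plates. TGI: concentration producing complete growth inhibition.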

Assay in all cases: inhibition of tumour cell growth, NCI panel, 48 h
Experiment [1] deals with ACHN renal.
Experiment [2] deals with KM12 colon.
Experiment [3] concerns K-562 leukemia.
For experiment [4], the system named is SK-MEL-28 melanoma.
In experiment [5] the test system is BT-549 breast.
The test system of experiment [6] is MDA-MB-435.
Experiment [7] concerns MDA-MB-231 breast.
The test system of experiment [8] is UACC-62 melanoma.
Experiment [9] has as its system SK-OV-3 ovarian.
The subject of experiment [10] is SF-539 CNS.
The subject of experiment [11] is OVCAR-3 ovarian.
Experiment [12] concerns CAKI-1 renal.

As for `CC(=O)O[C@H]1[C@H](OC(C)=O)[C@@H](CN=[N+]=[N-])OCO[C@@H]1CN=[N+]=[N-]`, the TGI in experiment [1], in experiment [2], in [3], in [4], in experiment [5] and in [6] was > 100 µM throughout. The TGI in experiment [7], in [8], in [9] and in [10] was > 100 µM throughout.
Consider `CC(=O)O[C@H]1CC[C@H]2[C@@H]3CCC4=C(C(=O)C=CC4(C)OC(C)=O)[C@H]3CC[C@]12C` (some centres not stated), for which the TGI in experiment [1], in experiment [2], in [3], in experiment [4], in [5] and in experiment [6] was > 100 µM each time. Also, the TGI in [11] was > 100 µM; in [7] it was > 100 µM; in [12], > 100 µM; in experiment [8] it was 74.5 µM; in experiment [10], > 100 µM.
Take `c1cc2cc(c1)CN1CCNCCN(CCNCC1)Cc1cccc(c1)CN1CCNCCN(CCNCC1)C2`: the TGI in [1], in experiment [2], in experiment [3], in [4], in experiment [5] and in experiment [6] was > 100 µM throughout. Also, the TGI in [11], in [7], in [8], in [9] and in [10] was > 100 µM each time.
Take `O=C(Nc1nncs1)NS(=O)(=O)n1cnc2ccccc21`: the TGI in experiment [1], in [2], in [4], in [5], in experiment [6] and in experiment [11] was > 100 µM in each case. For the same compound, the TGI in experiment [7], in [12], in experiment [8], in experiment [9] and in experiment [10] was > 100 µM each time.
Consider `CN(C)CCCNC(=O)c1cc(NC(=O)c2cc(NC(=O)[C@H]3C[C@@H]3C(=O)Nc3cc(C(=O)Nc4cc(C(=O)NCCCN(C)C)n(C)c4)n(C)c3)cn2C)cn1C`, for which the TGI in [1], in [2], in experiment [3], in [5], in experiment [6] and in experiment [7] was > 100 µM each time. Further, the TGI in experiment [12] and in [10] was > 100 µM in each case.
On to `Cc1ccc(S(=O)C[C@@]2(C(F)F)NC(=O)NC2=O)cc1` (some centres not stated), for which the TGI in experiment [1], in [2], in experiment [3], in experiment [4], in experiment [5] and in experiment [6] was > 100 µM each time. Also, the TGI in experiment [11], in experiment [7], in [12], in experiment [8] and in experiment [9] was > 100 µM throughout.
`COC1=CC(=O)c2c(O)ccc(O)c2C1=O`: the TGI is 34.4 µM in experiment [1]; 16.4 µM in experiment [2]; > 100 µM in experiment [3]; 3.71 µM in experiment [4]; 6.17 µM in experiment [5]; 1.34 µM in experiment [6]. In addition, the TGI in [11] is 5.03 µM; in experiment [7], 10.1 µM; in experiment [8], 4.21 µM; in experiment [9], 33 µM; in experiment [10] it was 10.4 µM.
Consider `Clc1ccc2c(c1)CC1C[N+]3=C(CCCC3)C1=C2` (configuration not stated), for which the TGI in [1], in experiment [2], in [3], in [4], in experiment [5] and in [6] was > 100 µM each time. Also, the TGI in experiment [11], in [7], in experiment [12], in [8] and in experiment [9] was > 100 µM in each case.
Regarding `CN(C)CS/C(N)=N\C(O)C(Cl)(Cl)Cl` (configuration not stated), the TGI in experiment [1], in [2], in [3], in experiment [4], in experiment [5] and in experiment [6] was > 100 µM throughout. In addition, the TGI in [11], in experiment [7], in [12] and in experiment [8] was > 100 µM each time.
For the compound `COC(=O)c1cc(-c2ccc(-c3ccc(O)cc3)cc2)cc(-c2ccc(-c3ccc(O)cc3)cc2)c1`, the TGI in experiment [1] was 27.3 µM; in experiment [2], 6.82 µM; in experiment [3] it was 17.6 µM; in experiment [4], 25.7 µM; in experiment [5], 26.6 µM; in experiment [6], 24.9 µM. For the same compound, the TGI worked out at 25.6 µM in experiment [11]; 71.3 µM in experiment [7]; 29.5 µM in experiment [12]; 29.6 µM in experiment [9]; 19.8 µM in experiment [10].
On to `Cc1nn(-c2ccccc2)c2c1C(c1cc3ccccc3nc1Cl)NC(=S)N2` (configuration not stated), for which the TGI in experiment [1], in experiment [2], in experiment [3], in [5], in experiment [6] and in experiment [11] was > 100 µM in each case. In addition, the TGI was > 100 µM in [7]; > 100 µM in experiment [12]; > 100 µM in experiment [8]; > 100 µM in [9]; 67.2 µM in [10].
Consider `CC(=O)N1C(C(=O)NNc2ccccc2)CSC1c1ccccc1` (configuration not stated), for which the TGI in [1], in experiment [2], in [3], in [5], in experiment [6] and in experiment [11] was > 100 µM in each case. The TGI in [7] is > 100 µM; in experiment [12], > 100 µM; in [8], 61.8 µM; in [9], > 100 µM; in [10], > 100 µM.
Turning to `O=C(O)CSc1nnc(CCCCCCCCc2nnc(SCC(=O)O)o2)o1`, the TGI in experiment [1], in [2], in [3], in [4], in experiment [5] and in experiment [6] was > 100 µM in each case. Also, the TGI in experiment [7], in [12], in experiment [8] and in [9] was > 100 µM in each case.
